Assay results from the supplement of paper PMC10307832.

Assays:
Experiment in all cases: relative viability (nuclei count vs DMSO), 5 days (fraction); higher = more cells survive
IU1-47 + Bortezomib = compound: CC1=CC(=C(N1C2=CC=C(C=C2)Cl)C)C(=O)CN3CCCCC3 [IU1-47] + CC(C)C[C@H](NC(=O)[C@H](Cc1ccccc1)NC(=O)c1cnccn1)B(O)O [Bortezomib] (partner 0.002 µM)
Procedure, shortened: (§1)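 Lung cancer cell lines, seeded in 1536-well plates, were treated the following day by pin tool with a single drug or with five library-drug doses (not always all listed) in √10 steps on top of a fixed anchor-drug dose. Cells were fixed and nuclei stained in one step after 5 days, and nuclei were counted. Relative viability is the nuclei count for treated wells divided by that for vehicle wells, reported as medians of duplicate plates.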

IU1-47 + Pictilisib = compound: CC1=CC(=C(N1C2=CC=C(C=C2)Cl)C)C(=O)CN3CCCCC3 [IU1-47] + CS(=O)(=O)N1CCN(Cc2cc3nc(-c4cccc5[nH]ncc45)nc(N4CCOCC4)c3s2)CC1 [Pictilisib] (partner 1 µM)
Procedure, shortened: as §1

IU1-47 + Olaparib = compound: CC1=CC(=C(N1C2=CC=C(C=C2)Cl)C)C(=O)CN3CCCCC3 [IU1-47] + O=C(c1cc(Cc2n[nH]c(=O)c3ccccc23)ccc1F)N1CCN(C(=O)C2CC2)CC1 [Olaparib] (partner 8 µM)
Procedure, shortened: as §1

FG-4592 + Dasatinib = compound: Cc1nc(C(=O)NCC(=O)O)c(O)c2ccc(Oc3ccccc3)cc12 [FG-4592] + Cc1nc(Nc2ncc(C(=O)Nc3c(C)cccc3Cl)s2)cc(N2CCN(CCO)CC2)n1 [Dasatinib] (partner 0.075 µM)
Procedure, shortened: as §1

Row | Cell Line | relative viability (IU1-47 + Bortezomib; first compound 0.08 µM) | relative viability (IU1-47 + Bortezomib; first compound 0.253 µM) | relative viability (IU1-47 + Bortezomib; first compound 0.8 µM) | relative viability (IU1-47 + Bortezomib; first compound 2.53 µM) | relative viability (IU1-47 + Bortezomib; first compound 8 µM) | relative viability (IU1-47 + Pictilisib; first compound 0.08 µM) | relative viability (IU1-47 + Pictilisib; first compound 0.253 µM) | relative viability (IU1-47 + Pictilisib; first compound 0.8 µM) | relative viability (IU1-47 + Pictilisib; first compound 2.53 µM) | relative viability (IU1-47 + Pictilisib; first compound 8 µM) | relative viability (IU1-47 + Olaparib; first compound 0.08 µM) | relative viability (IU1-47 + Olaparib; first compound 0.253 µM) | relative viability (IU1-47 + Olaparib; first compound 0.8 µM) | relative viability (IU1-47 + Olaparib; first compound 2.53 µM) | relative viability (IU1-47 + Olaparib; first compound 8 µM) | relative viability (FG-4592 + Dasatinib; first compound 0.08 µM) | relative viability (FG-4592 + Dasatinib; first compound 0.253 µM) | relative viability (FG-4592 + Dasatinib; first compound 0.8 µM) | relative viability (FG-4592 + Dasatinib; first compound 2.53 µM) | relative viability (FG-4592 + Dasatinib; first compound 8 µM)
1 | LCLC-103H | 1.2 | 1.14 | 1.1 | 1.12 | 1.08 | 0.586 | 0.566 | 0.624 | 0.509 | 0.639 | 0.794 | 0.831 | 0.779 | 0.77 | 0.737 | 0.414 | 0.492 | 0.311 | 0.342 | 0.408
2 | LOU-NH91 | 0.515 | 0.473 | 0.483 | 0.535 | 0.451 | 0.502 | 0.529 | 0.429 | 0.512 | 0.51 | 1.02 | 0.995 | 0.877 | 0.966 | 0.886 | 0.554 | 0.521 | 0.512 | 0.559 | 0.533
3 | LU99A | 1.12 | 1.23 | 1.06 | 1.12 | 1.09 | 0.35 | 0.337 | 0.275 | 0.312 | 0.298 | 0.233 | 0.273 | 0.272 | 0.265 | 0.245 | 0.535 | 0.371 | 0.402 | 0.561 | 0.58
4 | LXF-289 | 0.993 | 1.06 | 1.05 | 1.05 | 0.954 | 0.8 | 0.754 | 0.772 | 0.822 | 0.688 | 1.08 | 1.15 | 1.09 | 0.993 | 0.862 | 0.22 | 0.186 | 0.19 | 0.168 | 0.189
5 | NCI-H23 | 0.988 | 1.24 | 1.27 | 1.02 | 0.949 | 0.43 | 0.492 | 0.44 | 0.543 | 0.435 | 0.288 |  | 0.281 | 0.385 | 0.257 | 0.841 | 0.669 | 0.706 | 0.694 | 0.862
6 | NCI-H322M | 1.22 | 1.2 | 1.12 | 1.17 | 1.29 | 0.56 | 0.478 | 0.514 | 0.517 | 0.513 | 0.838 | 0.838 | 0.813 | 0.845 | 0.757 | 0.248 | 0.249 | 0.219 | 0.245 | 0.224
7 | NCI-H441 | 0.732 | 0.574 | 0.489 | 0.561 | 0.56 | 0.483 | 0.486 | 0.464 | 0.504 | 0.43 | 0.61 | 0.591 | 0.511 | 0.543 | 0.539 | 0.56 | 0.547 | 0.524 | 0.55 | 0.555
8 | NCI-H460 | 1.14 | 1.25 | 1.14 | 1.2 | 0.469 | 0.385 | 0.284 | 0.381 | 0.359 | 0.345 | 0.545 | 0.407 | 0.501 | 0.398 | 0.35 | 0.527 | 0.511 | 0.43 | 0.457 | 0.368
9 | NCI-H520 | 0.679 | 0.687 | 0.821 | 0.576 | 0.408 | 0.303 | 0.297 | 0.378 | 0.331 | 0.237 | 0.32 | 0.391 | 0.269 | 0.349 | 0.309 | 0.171 | 0.206 | 0.133 | 0.157 | 0.157
10 | NCI-H596 | 1.03 | 0.929 | 1.11 | 1.07 | 0.995 | 0.393 | 0.367 | 0.405 | 0.429 | 0.393 | 0.676 |  | 0.754 | 0.718 | 0.632 | 0.573 | 0.736 | 0.418 | 0.537 | 0.562
11 | NCI-H647 | 0.97 | 0.904 | 1.08 | 0.859 | 0.862 | 0.467 | 0.52 | 0.453 |  | 0.359 | 0.661 | 0.755 | 0.556 | 0.783 | 0.333 | 0.186 | 0.202 | 0.145 | 0.172 | 0.183
12 | NCI-H650 | 0.908 | 0.811 | 0.952 | 0.742 | 0.681 | 0.882 | 1 | 0.932 | 0.968 | 0.832 | 0.447 | 0.426 | 0.378 | 0.4 | 0.413 | 0.464 | 0.491 | 0.393 | 0.407 | 0.392
13 | NCI-H661 | 0.962 | 0.944 | 0.896 | 0.564 | 0.732 | 0.376 | 0.406 | 0.414 | 0.349 | 0.363 | 0.798 | 0.735 | 0.807 | 0.801 | 0.589 | 0.983 | 0.825 | 0.874 | 0.827 | 0.835
14 | NCI-H727 | 0.742 |  | 1.13 | 0.979 | 0.704 | 0.33 |  | 0.356 | 0.264 | 0.355 | 0.661 | 0.729 | 0.691 | 0.64 | 0.66 | 0.375 | 0.473 | 0.326 | 0.49 | 0.41
15 | NCI-H838 | 0.869 | 0.952 | 0.904 | 0.624 | 0.564 | 0.391 | 0.462 | 0.485 | 0.436 | 0.425 | 0.809 | 0.799 | 0.774 | 0.911 | 0.58 | 0.271 | 0.262 | 0.226 | 0.27 | 0.207
